Results published in patent US20260015358A1, “BICYCLIC DERIVATIVES, COMPOSITIONS AND USES THEREOF” (Danatlas Pharmaceuticals Co., Ltd., priority 2023, published 2026).
pIC50: −log10 of the molar value.

Tests used:
[1] = biological target: T1, WRN [UniPro: Q14191 (WRN_HUMAN), N500-C946] (Homo sapiens (Human), UniProt Q14191); experiment: WRN ATPase assay (ADP-Glo); assay type: biochemical; details: WRN enzymatic activity assay
Method: WRN ATPase assay was initiated to evaluate potential inhibitory effect of compounds for ATP hydrolysis activity of WRN protein. WRN [UniPro: Q14191 (WRN_HUMAN), N500-C946] was expressed and purified in insect system and stored at −80° C. in aliquots. […] ADP quantity produced from ATP hydrolysis by WRN catalytic reaction was measured using a commercially available ADP-Glo Assay (ADP-Glo™ Kinase Assay from Promega, 10000 assays, #V9102). […] Compounds dissolved in DMSO (Sigma, D8418) were plated into a 96-well intermediate plate (BioFil, VWP-032-096) for 3-fold serial titration for 10 points using DMSO, and well-to-well transfer the titrated compounds into another 96-well intermediate plate including assay buffer in advance. Shake the 96-well intermediate plate at 600 rpm for 10 min to fully mix. Specifically, a 4× working mixture of WRN was diluted to a concentration of 8 nM in assay buffer. […] After centrifuging at 1000 rpm and shaking at 500 rpm, the assay plate was pre-incubated for 30 min. Then, 5 μL 2×FORKF DNA and ATP working mixture was dispensed into assay plate. Plate was sealed, centrifuged and incubated for an additional 40 min. at 37° C. The reaction was stopped with the addition of 10 μL of the first ADP-Glo reagent and incubated for 40 min. to remove the excess amount of ATP. Afterwards, 20 μL of ATP detection reagent was added and incubated for 30 min. before reading. Luminescence output was recorded using BMG CLARIO star plus reader. Each concentration of compound was tested in duplicates in the assay plate. Average luminescence signal of high control (Wells with 1% DMSO) was calculated as High Control (HC). Average luminescence signal of low control (Wells with no WRN protein) was calculated as Low control (LC).
IC50 values were determined by fitting the data to the standard 4 parameters with Hill Slope using GraphPad Prism software.

[2] = biological target: T1, WRN [UniPro: Q14191 (WRN_HUMAN), N500-C946]; experiment: WRN unwinding assay (FORKF DNA, fluorescence); assay type: biochemical; details: Table 14

T1 sequence (Q14191 500-946): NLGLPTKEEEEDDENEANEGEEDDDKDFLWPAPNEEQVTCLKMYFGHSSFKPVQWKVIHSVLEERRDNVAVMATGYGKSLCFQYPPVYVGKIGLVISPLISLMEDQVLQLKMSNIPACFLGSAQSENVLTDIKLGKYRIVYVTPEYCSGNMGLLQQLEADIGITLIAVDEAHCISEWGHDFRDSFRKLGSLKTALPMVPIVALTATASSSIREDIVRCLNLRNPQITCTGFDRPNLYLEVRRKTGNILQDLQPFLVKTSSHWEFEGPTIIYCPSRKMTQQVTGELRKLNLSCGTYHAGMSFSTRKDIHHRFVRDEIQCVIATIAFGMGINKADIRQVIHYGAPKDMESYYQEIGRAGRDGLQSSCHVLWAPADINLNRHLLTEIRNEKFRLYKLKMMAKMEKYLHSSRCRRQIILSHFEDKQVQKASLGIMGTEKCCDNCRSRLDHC

With CCc1c(N2CCN(C(=O)c3nc(C(F)(F)F)c[nH]3)CC2)c(=O)n2nc(C3=CCOCC3)nc2n1CC(=O)Nc1ccc(C(F)(F)F)cc1Cl [Example 1, N-(2-Chloro-4-(trifluoromethyl)phenyl)-2-(2-(3,6-dihydro-2H-pyran-4-yl)-5-ethyl-7-oxo-6-(4-(4-(trifluoromethyl)-1H-imidazole-2-carbonyl)piperazin-1-yl)-[1,2,4]triazolo[1,5-a]pyrimidin-4(7H)-yl)acetamide] as the compound, how does the pIC50 [1] read?
Its pIC50 is 6.00 to 7.00.

What about the pIC50 [2] of the same compound?
Its pIC50 is 6.00 to 7.00.

What does the source list for CCc1c(N2CCN(C(=O)c3sc4cccnc4c3N)CC2)c(=O)n2nc(C3=CCOCC3)nc2n1CC(=O)Nc1ccc(C(F)(F)F)cc1Cl [Example 2, 2-(6-(4-(3-Aminothieno[3,2-b]pyridine-2-carbonyl)piperazin-1-yl)-2-(3,6-dihydro-2H-pyran-4-yl)-5-ethyl-7-oxo-[1,2,4]triazolo[1,5-a]pyrimidin-4(7H)-yl)-N-(2-chloro-4-(trifluoromethyl)phenyl)acetamide]?
pIC50 [1]: 6.00 to 7.00; pIC50 [2]: 6.00 to 7.00

With CCc1c(N2CCN(C(=O)c3cnc4[nH]ncc4c3O)CC2)c(=O)n2nc(C3=CCOCC3)nc2n1CC(=O)Nc1ccc(C(F)(F)F)cc1Cl [Example 3, N-(2-Chloro-4-(trifluoromethyl)phenyl)-2-(2-(3,6-dihydro-2H-pyran-4-yl)-5-ethyl-6-(4-(4-hydroxy-1H-pyrazolo[3,4-b]pyridine-5-carbonyl)piperazin-1-yl)-7-oxo-[1,2,4]triazolo[1,5-a]pyrimidin-4(7H)-yl)acetamide] as the compound, how does the pIC50 [1] read?
Its pIC50 is greater than 7.00.

And the pIC50 [2]?
Its pIC50 is greater than 7.00.

How did the pIC50 [1] turn out when CCc1c(N2CCN(C(=O)c3c(O)cc(C)oc3=O)CC2)c(=O)n2nc(C3=CCOCC3)nc2n1CC(=O)Nc1ccc(C(F)(F)F)cc1Cl [Example 4, N-(2-Chloro-4-(trifluoromethyl)phenyl)-2-(2-(3,6-dihydro-2H-pyran-4-yl)-5-ethyl-6-(4-(4-hydroxy-6-methyl-2-oxo-2H-pyran-3-carbonyl)piperazin-1-yl)-7-oxo-[1,2,4]triazolo[1,5-a]pyrimidin-4(7H)-yl)acetamide] was run?
The pIC50 was greater than 7.00.

And the pIC50 [2]?
The pIC50 was greater than 7.00.

How did the pIC50 [2] turn out when CCc1c(N2CCN(C(=O)CNC(=O)c3ccccc3)CC2)c(=O)n2nc(Br)nc2n1CC(=O)Nc1ccc(C(F)(F)F)cc1Cl [Example 230, N-(2-(4-(2-Bromo-4-(2-((2-chloro-4-(trifluoromethyl)phenyl)amino)-2-oxoethyl)-5-ethyl-7-oxo-4,7-dihydro-[1,2,4]triazolo[1,5-a]pyrimidin-6-yl)piperazin-1-yl)-2-oxoethyl)benzamide] was run?
Its pIC50 is 6.00 to 7.00.

CCc1c(N2CCN(C(=O)CNC(=O)c3ccccc3F)CC2)c(=O)n2nc(OCCOC)nc2n1CC(=O)Nc1ccc(C(F)(F)F)cc1Cl [Example 240, N-(2-(4-(4-(2-((2-Chloro-4-(trifluoromethyl)phenyl)amino)-2-oxoethyl)-5-ethyl-2-(2-methoxyethoxy)-7-oxo-4,7-dihydro-[1,2,4]triazolo[1,5-a]pyrimidin-6-yl)piperazin-1-yl)-2-oxoethyl)-2-fluorobenzamide] was tested. Which pIC50 [2] did it give?
Its pIC50 is less than 6.00.

CCc1c(N2CCN(C(=O)CNC(=O)c3ccccc3F)CC2)c(=O)n2nc(N3CC(OC)C3)nc2n1CC(=O)Nc1ccc(C(F)(F)F)cc1Cl [Example 242, N-(2-(4-(4-(2-((2-Chloro-4-(trifluoromethyl)phenyl)amino)-2-oxoethyl)-5-ethyl-2-(3-methoxyazetidin-1-yl)-7-oxo-4,7-dihydro-[1,2,4]triazolo[1,5-a]pyrimidin-6-yl)piperazin-1-yl)-2-oxoethyl)-2-fluorobenzamide] was tested. Which pIC50 [2] did it give?
Its pIC50 is 6.00 to 7.00.

With CCc1c(N2CCN(C(=O)CNC(=O)c3ccccc3F)CC2)c(=O)n2nc(N3CC(C#N)C3)nc2n1CC(=O)Nc1ccc(C(F)(F)F)cc1Cl [Example 243, N-(2-(4-(4-(2-((2-Chloro-4-(trifluoromethyl)phenyl)amino)-2-oxoethyl)-2-(3-cyanoazetidin-1-yl)-5-ethyl-7-oxo-4,7-dihydro-[1,2,4]triazolo[1,5-a]pyrimidin-6-yl)piperazin-1-yl)-2-oxoethyl)-2-fluorobenzamide] as the compound, how does the pIC50 [2] read?
The pIC50 was 6.00 to 7.00.

How did the pIC50 [2] turn out when CCc1c(N2CCN(C(=O)CNC(=O)c3ccccc3F)CC2)c(=O)n2nc(N3CCOCC3)nc2n1CC(=O)Nc1ccc(C(F)(F)F)cc1Cl [Example 245, N-(2-(4-(4-(2-((2-Chloro-4-(trifluoromethyl)phenyl)amino)-2-oxoethyl)-5-ethyl-2-morpholino-7-oxo-4,7-dihydro-[1,2,4]triazolo[1,5-a]pyrimidin-6-yl)piperazin-1-yl)-2-oxoethyl)-2-fluorobenzamide] was run?
The pIC50 was greater than 7.00.

How did the pIC50 [2] turn out when CCc1c(N2CCN(C(=O)CNC(=O)c3ccccc3N3CCOCC3)CC2)c(=O)n2nc(N3CCOCC3)nc2n1CC(=O)Nc1ccc(C(F)(F)F)cc1Cl [Example 247, N-(2-(4-(4-(2-((2-Chloro-4-(trifluoromethyl)phenyl)amino)-2-oxoethyl)-5-ethyl-2-morpholino-7-oxo-4,7-dihydro-[1,2,4]triazolo[1,5-a]pyrimidin-6-yl)piperazin-1-yl)-2-oxoethyl)-2-morpholinobenzamide] was run?
The pIC50 was 6.00 to 7.00.

How did the pIC50 [2] turn out when CCc1c(N2CCN(C(=O)CNC(=O)c3c(O)cccc3F)CC2)c(=O)n2nc(C3=CCOCC3)nc2n1CC(=O)Nc1ccc(C(F)(F)F)cc1Cl [Example 294, N-(2-(4-(4-(2-((2-Chloro-4-(trifluoromethyl)phenyl)amino)-2-oxoethyl)-2-(3,6-dihydro-2H-pyran-4-yl)-5-ethyl-7-oxo-4,7-dihydro-[1,2,4]triazolo[1,5-a]pyrimidin-6-yl)piperazin-1-yl)-2-oxoethyl)-2-fluoro-6-hydroxybenzamide] was run?
The pIC50 was 6.00 to 7.00.

How did the pIC50 [2] turn out when CCc1c(N2CCN(C(=O)c3cc4c(OC)ccnc4[nH]3)CC2)c(=O)n2nc(C3=CCOCC3)nc2n1CC(=O)Nc1ccc(C(F)(F)F)cc1Cl [Example 302, N-(2-Chloro-4-(trifluoromethyl)phenyl)-2-(2-(3,6-dihydro-2H-pyran-4-yl)-5-ethyl-6-(4-(4-methoxy-1H-pyrrolo[2,3-b]pyridine-2-carbonyl)piperazin-1-yl)-7-oxo-[1,2,4]triazolo[1,5-a]pyrimidin-4(7H)-yl)acetamide] was run?
Its pIC50 is 6.00 to 7.00.

How did the pIC50 [2] turn out when CCc1c(N2CCN(C(=O)c3nnc(-c4ccccc4F)[nH]3)CC2)c(=O)n2nc(C3=CCOCC3)nc2n1CC(=O)Nc1ccc(C(F)(F)F)cc1F [Example 309, 2-(2-(3,6-Dihydro-2H-pyran-4-yl)-5-ethyl-6-(4-(5-(2-fluorophenyl)-4H-1,2,4-triazole-3-carbonyl)piperazin-1-yl)-7-oxo-[1,2,4]triazolo[1,5-a]pyrimidin-4(7H)-yl)-N-(2-fluoro-4-(trifluoromethyl)phenyl)acetamide] was run?
The pIC50 was 6.00 to 7.00.

With CCc1c(N2CCN(C(=O)c3c[nH]c(=O)[nH]3)CC2)c(=O)n2nc(C3=CCOCC3)nc2n1CC(=O)Nc1ccc(C(F)(F)F)cc1Cl [Example 316, N-(2-Chloro-4-(trifluoromethyl)phenyl)-2-(2-(3,6-dihydro-2H-pyran-4-yl)-5-ethyl-7-oxo-6-(4-(2-oxo-2,3-dihydro-1H-imidazole-4-carbonyl)piperazin-1-yl)-[1,2,4]triazolo[1,5-a]pyrimidin-4(7H)-yl)acetamide] as the compound, how does the pIC50 [2] read?
Its pIC50 is 6.00 to 7.00.

CCc1c(N2CCN(C(=O)c3[nH]c(=O)oc3C(F)(F)F)CC2)c(=O)n2nc(C3=CCOCC3)nc2n1CC(=O)Nc1ccc(C(F)(F)F)cc1Cl [Example 317, N-(2-Chloro-4-(trifluoromethyl)phenyl)-2-(2-(3,6-dihydro-2H-pyran-4-yl)-5-ethyl-7-oxo-6-(4-(2-oxo-5-(trifluoromethyl)-2,3-dihydrooxazole-4-carbonyl)piperazin-1-yl)-[1,2,4]triazolo[1,5-a]pyrimidin-4(7H)-yl)acetamide] was tested. Which pIC50 [2] did it give?
Its pIC50 is 6.00 to 7.00.

How did the pIC50 [2] turn out when CCc1c(N2CCN(C(=O)/C=C/c3cnccc3O)CC2)c(=O)n2nc(C3=CCOCC3)nc2n1CC(=O)Nc1ccc(C(F)(F)F)cc1F [Example 328, (E)-2-(2-(3,6-Dihydro-2H-pyran-4-yl)-5-ethyl-6-(4-(3-(4-hydroxypyridin-3-yl)acryloyl)piperazin-1-yl)-7-oxo-[1,2,4]triazolo[1,5-a]pyrimidin-4(7H)-yl)-N-(2-fluoro-4-(trifluoromethyl)phenyl)acetamide] was run?
The pIC50 was 6.00 to 7.00.

CCc1c(N2CCN(C(=O)CNC(=O)CN3CCCC3)CC2)c(=O)n2nc(C3=CCOCC3)nc2n1CC(=O)Nc1ccc(C(F)(F)F)cc1Cl [Example 339, N-(2-Chloro-4-(trifluoromethyl)phenyl)-2-(2-(3,6-dihydro-2H-pyran-4-yl)-5-ethyl-7-oxo-6-(4-((2-(pyrrolidin-1-yl)acetyl)glycyl)piperazin-1-yl)-[1,2,4]triazolo[1,5-a]pyrimidin-4(7H)-yl)acetamide] was tested. Which pIC50 [2] did it give?
Its pIC50 is 6.00 to 7.00.
